Calls of active or inactive are those of the source. The rule behind the calls is not given here.
How the values were obtained:
[1] = target: Casein kinase I isoform gamma-2 (Homo sapiens) (UniProt P78368); assay: Inhibition of CK1gamma2 (unknown origin) at 1 uM in presence of ATP relative to control; values are per cent of control
[2] = target: Mitogen-activated protein kinase 13 (Homo sapiens) (UniProt O15264); assay: Inhibition of […] (unknown origin) at 1 uM in presence of ATP relative to control; values are per cent of control
NIH3T3 = assay: Antitumor activity against mouse NIH3T3 cells harboring extracellular domain deleted TRKA G595R mutant implanted in nu/nu NCr mouse assessed as inhibition of tumor growth at 30 to 300 mg/kg, po administered twice daily for 12 days; format: functional, organism-based; conditions: dose 30-300 mg/kg, time 12.0 day
[3] = target: Mitogen-activated protein kinase 8 (Homo sapiens) (UniProt P45983); assay: Inhibition of JNK1alpha1 (unknown origin) at 1 uM in presence of ATP relative to control; values are per cent of control
Sequence of Mitogen-activated protein kinase 8 (Homo sapiens) (P45983 whole entry): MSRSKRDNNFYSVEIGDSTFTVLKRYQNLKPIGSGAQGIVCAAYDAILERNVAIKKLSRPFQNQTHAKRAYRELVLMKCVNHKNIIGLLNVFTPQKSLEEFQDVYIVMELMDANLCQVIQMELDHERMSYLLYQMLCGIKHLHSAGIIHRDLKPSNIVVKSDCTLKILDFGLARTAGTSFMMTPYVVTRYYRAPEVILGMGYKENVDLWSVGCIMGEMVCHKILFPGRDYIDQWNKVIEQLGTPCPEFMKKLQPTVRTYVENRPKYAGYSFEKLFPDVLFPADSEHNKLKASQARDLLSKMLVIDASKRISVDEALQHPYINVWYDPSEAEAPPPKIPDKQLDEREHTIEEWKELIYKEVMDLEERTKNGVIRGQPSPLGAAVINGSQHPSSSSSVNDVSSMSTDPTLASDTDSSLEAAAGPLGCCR

[4] = target: MAP kinase-activated protein kinase 5 (Homo sapiens) (UniProt Q8IW41); assay: Inhibition of MAPKAP-K5 (unknown origin) at 1 uM in presence of ATP relative to control; values are per cent of control
CAMA-1 = assay: Inhibition of cell proliferation in human CAMA-1 cells upto 10 umol/L incubated for 72 hrs by DAPI staining based analysis; format: functional; conditions: dose <= 10.0 µmol/L
[5] = target: Protein-tyrosine kinase 6 (Homo sapiens) (UniProt Q13882); assay: Inhibition of PTK6 (unknown origin) at 1 uM in presence of ATP relative to control; values are per cent of control
J82 = assay: Inhibition of cell proliferation in human J82 cells upto 10 umol/L incubated for 72 hrs by DAPI staining based analysis; format: functional; conditions: dose <= 10.0 µmol/L
OE19 = assay: Inhibition of cell proliferation in human OE19 cells upto 10 umol/L incubated for 72 hrs by DAPI staining based analysis; format: functional; conditions: dose <= 10.0 µmol/L
SHP77 = assay: Inhibition of cell proliferation in human SHP77 cells upto 10 umol/L incubated for 72 hrs by DAPI staining based analysis; format: functional; conditions: dose <= 10.0 µmol/L
[6] = target: Tyrosine-protein kinase receptor UFO (Homo sapiens) (UniProt P30530); assay: Inhibition of Axl (unknown origin) at 1 uM in presence of ATP relative to control; values are per cent of control
[7] = target: Casein kinase II subunit alpha' (Homo sapiens) (UniProt P19784); assay: Inhibition of CK2alpha2 (unknown origin) at 1 uM in presence of ATP relative to control; values are per cent of control
Sequence of Casein kinase II subunit alpha' (Homo sapiens) (P19784 whole entry, looked up): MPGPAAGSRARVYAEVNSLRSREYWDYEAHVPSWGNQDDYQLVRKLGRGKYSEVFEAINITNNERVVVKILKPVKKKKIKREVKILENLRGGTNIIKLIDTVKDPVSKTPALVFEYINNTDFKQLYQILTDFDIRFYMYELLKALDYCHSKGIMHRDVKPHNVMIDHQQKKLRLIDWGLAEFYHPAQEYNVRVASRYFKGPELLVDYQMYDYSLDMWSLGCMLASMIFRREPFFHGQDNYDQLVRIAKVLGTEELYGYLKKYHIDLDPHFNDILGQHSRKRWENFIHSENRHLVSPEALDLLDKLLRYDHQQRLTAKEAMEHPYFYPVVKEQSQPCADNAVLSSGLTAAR

MV4-11 = assay: Inhibition of cell proliferation in human MV4-11 cells upto 10 umol/L incubated for 72 hrs by DAPI staining based analysis; format: functional; conditions: dose <= 10.0 µmol/L
[8] = target: Rho-associated protein kinase 1 (Homo sapiens) (UniProt Q13464); assay: Inhibition of ROCK-I (unknown origin) at 1 uM in presence of ATP relative to control; values are per cent of control
[9] = target: Ephrin type-B receptor 4 (Homo sapiens) (UniProt P54760); assay: Inhibition of EphB4 (unknown origin) at 1 uM in presence of ATP relative to control; values are per cent of control
Sequence of Ephrin type-B receptor 4 (Homo sapiens) (P54760 whole entry): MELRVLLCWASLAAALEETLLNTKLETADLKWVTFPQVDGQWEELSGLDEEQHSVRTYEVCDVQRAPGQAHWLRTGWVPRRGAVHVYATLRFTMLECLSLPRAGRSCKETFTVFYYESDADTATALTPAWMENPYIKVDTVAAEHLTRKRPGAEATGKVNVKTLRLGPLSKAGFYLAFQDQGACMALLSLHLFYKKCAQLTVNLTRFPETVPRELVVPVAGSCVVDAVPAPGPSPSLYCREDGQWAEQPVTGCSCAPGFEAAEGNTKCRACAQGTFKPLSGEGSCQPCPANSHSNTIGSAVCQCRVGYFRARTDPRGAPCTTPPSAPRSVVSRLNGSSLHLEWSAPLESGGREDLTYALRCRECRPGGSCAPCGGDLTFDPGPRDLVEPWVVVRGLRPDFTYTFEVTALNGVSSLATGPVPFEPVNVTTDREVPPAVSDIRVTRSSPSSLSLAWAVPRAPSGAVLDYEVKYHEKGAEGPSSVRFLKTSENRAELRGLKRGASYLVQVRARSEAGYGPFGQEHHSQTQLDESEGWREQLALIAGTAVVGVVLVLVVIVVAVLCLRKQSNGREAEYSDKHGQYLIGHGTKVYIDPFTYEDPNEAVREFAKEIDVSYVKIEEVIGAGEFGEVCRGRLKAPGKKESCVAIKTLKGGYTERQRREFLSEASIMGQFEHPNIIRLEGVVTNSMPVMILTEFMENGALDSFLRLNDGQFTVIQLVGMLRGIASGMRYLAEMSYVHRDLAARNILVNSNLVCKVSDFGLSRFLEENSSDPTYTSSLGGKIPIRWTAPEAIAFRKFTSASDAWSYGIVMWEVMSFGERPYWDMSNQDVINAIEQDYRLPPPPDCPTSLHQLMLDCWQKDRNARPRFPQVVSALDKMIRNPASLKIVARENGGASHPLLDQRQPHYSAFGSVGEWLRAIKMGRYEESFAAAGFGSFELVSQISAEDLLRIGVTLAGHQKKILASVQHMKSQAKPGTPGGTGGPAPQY

[10] = target: Homeodomain-interacting protein kinase 3 (Homo sapiens) (UniProt Q9H422); assay: Inhibition of HIPK3 (unknown origin) at 1 uM in presence of ATP relative to control; values are per cent of control
[11] = target: Serine/threonine-protein kinase N2 (Homo sapiens) (UniProt Q16513); assay: Inhibition of PRK2 (unknown origin) at 1 uM in presence of ATP relative to control; values are per cent of control
[12] = target: Proto-oncogene tyrosine-protein kinase ROS (Homo sapiens) (UniProt P08922); assay: Inhibition of Ros (unknown origin) at 1 uM in presence of ATP relative to control
Sequence of Proto-oncogene tyrosine-protein kinase ROS (Homo sapiens) (P08922 whole entry): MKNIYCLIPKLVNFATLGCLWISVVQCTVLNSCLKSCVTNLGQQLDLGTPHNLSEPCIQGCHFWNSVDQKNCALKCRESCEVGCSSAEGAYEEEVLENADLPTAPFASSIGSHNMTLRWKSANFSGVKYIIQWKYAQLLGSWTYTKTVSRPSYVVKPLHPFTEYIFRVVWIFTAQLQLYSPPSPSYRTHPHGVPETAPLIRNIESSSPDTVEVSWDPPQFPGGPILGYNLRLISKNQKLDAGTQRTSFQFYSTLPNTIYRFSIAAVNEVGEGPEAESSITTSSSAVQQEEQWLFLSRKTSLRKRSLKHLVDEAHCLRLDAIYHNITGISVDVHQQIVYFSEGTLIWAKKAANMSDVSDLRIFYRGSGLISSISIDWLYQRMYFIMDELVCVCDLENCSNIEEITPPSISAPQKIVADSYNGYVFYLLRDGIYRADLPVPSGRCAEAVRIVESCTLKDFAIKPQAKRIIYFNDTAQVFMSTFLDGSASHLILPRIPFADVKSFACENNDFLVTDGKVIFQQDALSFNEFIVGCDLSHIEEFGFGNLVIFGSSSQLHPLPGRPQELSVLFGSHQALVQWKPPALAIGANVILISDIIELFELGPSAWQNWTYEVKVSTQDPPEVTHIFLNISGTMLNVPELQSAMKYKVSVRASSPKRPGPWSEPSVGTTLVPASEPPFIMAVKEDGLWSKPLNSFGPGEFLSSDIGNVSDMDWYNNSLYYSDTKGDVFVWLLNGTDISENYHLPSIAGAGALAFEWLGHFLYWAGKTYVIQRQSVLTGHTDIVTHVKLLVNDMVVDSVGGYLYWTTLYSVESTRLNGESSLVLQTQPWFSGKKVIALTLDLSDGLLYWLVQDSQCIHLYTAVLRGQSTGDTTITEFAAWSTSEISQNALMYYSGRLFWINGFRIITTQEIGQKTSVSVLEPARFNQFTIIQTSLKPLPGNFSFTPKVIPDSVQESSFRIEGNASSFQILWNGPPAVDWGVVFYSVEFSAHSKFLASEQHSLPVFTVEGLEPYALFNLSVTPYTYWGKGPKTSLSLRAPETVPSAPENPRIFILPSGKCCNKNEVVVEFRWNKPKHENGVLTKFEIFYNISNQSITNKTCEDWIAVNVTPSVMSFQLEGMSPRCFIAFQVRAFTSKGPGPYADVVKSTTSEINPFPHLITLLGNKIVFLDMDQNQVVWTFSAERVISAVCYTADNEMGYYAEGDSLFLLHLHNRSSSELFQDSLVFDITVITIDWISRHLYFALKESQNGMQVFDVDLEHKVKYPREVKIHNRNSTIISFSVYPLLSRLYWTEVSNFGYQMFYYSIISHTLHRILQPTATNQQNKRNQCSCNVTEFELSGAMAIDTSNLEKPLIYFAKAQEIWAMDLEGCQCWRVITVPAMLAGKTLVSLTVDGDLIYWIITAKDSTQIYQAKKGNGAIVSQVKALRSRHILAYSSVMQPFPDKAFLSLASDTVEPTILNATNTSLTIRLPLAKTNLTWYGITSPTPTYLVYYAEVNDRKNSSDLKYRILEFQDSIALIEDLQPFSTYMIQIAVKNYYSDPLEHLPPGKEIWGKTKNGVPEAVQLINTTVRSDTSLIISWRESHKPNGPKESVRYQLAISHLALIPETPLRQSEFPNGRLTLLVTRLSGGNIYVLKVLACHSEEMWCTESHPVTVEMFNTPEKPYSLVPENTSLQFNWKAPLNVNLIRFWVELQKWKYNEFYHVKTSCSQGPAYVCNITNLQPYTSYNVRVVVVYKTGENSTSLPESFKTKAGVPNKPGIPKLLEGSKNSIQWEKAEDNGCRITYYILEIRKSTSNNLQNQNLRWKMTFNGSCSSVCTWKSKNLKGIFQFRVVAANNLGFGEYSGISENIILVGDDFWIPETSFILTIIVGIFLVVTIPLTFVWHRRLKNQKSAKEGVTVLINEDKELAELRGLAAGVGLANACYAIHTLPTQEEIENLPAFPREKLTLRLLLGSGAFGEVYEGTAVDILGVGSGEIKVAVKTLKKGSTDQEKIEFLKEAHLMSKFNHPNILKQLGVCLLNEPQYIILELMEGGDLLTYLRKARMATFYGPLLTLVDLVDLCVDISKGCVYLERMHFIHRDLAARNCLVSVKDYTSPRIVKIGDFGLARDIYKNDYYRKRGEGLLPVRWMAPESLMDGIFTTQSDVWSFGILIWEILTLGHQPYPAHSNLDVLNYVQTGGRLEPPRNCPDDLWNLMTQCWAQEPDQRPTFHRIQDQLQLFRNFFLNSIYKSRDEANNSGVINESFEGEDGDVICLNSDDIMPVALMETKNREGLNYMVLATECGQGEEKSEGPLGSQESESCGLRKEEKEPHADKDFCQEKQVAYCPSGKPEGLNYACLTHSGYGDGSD

[13] = Cmin in pediatric patient with recurrent ETV6-NTRK3-rearranged infantile fibrosarcoma at 60 mg administered twice a day as liquid formulation for 29 day and measured 12 hrs post dose by LC-MS/MS analysis; format: ADME; conditions: human, in vivo, read-out: Cmin
[14] = target: Serine/threonine-protein kinase MARK1 (Homo sapiens) (UniProt Q9P0L2); assay: Inhibition of MARK1 (unknown origin) at 1 uM in presence of ATP relative to control; values are per cent of control
[15] = target: cGMP-dependent protein kinase 1 (Homo sapiens) (UniProt Q13976); assay: Inhibition of PRKG1beta (unknown origin) at 1 uM in presence of ATP relative to control; values are per cent of control
D283 Med = assay: Inhibition of cell proliferation in human D283 Med cells upto 10 umol/L incubated for 72 hrs by DAPI staining based analysis; format: functional; conditions: dose <= 10.0 µmol/L
T-24 = assay: Inhibition of cell proliferation in human T24 cells upto 10 umol/L incubated for 72 hrs by DAPI staining based analysis; format: functional; conditions: dose <= 10.0 µmol/L
SJRH30 = assay: Inhibition of cell proliferation in human SJRH30 cells upto 10 umol/L incubated for 72 hrs by DAPI staining based analysis; format: functional; conditions: dose <= 10.0 µmol/L
COR-L105 = assay: Inhibition of cell proliferation in human COR-L105 cells upto 10 umol/L incubated for 72 hrs by DAPI staining based analysis; format: functional; conditions: dose <= 10.0 µmol/L
[16] = target: Serine/threonine-protein kinase Sgk1 (Homo sapiens) (UniProt O00141); assay: Inhibition of SGK1 (unknown origin) at 1 uM in presence of ATP relative to control; values are per cent of control
Homo sapiens = organism: Homo sapiens; assay: Inhibition of CDK2/cyclinA (unknown origin) at 1 uM in presence of ATP relative to control; values are per cent of control
[17] = target: Testis-specific serine/threonine-protein kinase 1 (Homo sapiens) (UniProt Q9BXA7); assay: Inhibition of TSSK1 (unknown origin) at 1 uM in presence of ATP relative to control; values are per cent of control
[18] = target: Serine/threonine-protein kinase tousled-like 2 (Homo sapiens) (UniProt Q86UE8); assay: Inhibition of TLK2 (unknown origin) at 1 uM in presence of ATP relative to control; values are per cent of control
Sequence of Serine/threonine-protein kinase tousled-like 2 (Homo sapiens) (Q86UE8 whole entry, looked up): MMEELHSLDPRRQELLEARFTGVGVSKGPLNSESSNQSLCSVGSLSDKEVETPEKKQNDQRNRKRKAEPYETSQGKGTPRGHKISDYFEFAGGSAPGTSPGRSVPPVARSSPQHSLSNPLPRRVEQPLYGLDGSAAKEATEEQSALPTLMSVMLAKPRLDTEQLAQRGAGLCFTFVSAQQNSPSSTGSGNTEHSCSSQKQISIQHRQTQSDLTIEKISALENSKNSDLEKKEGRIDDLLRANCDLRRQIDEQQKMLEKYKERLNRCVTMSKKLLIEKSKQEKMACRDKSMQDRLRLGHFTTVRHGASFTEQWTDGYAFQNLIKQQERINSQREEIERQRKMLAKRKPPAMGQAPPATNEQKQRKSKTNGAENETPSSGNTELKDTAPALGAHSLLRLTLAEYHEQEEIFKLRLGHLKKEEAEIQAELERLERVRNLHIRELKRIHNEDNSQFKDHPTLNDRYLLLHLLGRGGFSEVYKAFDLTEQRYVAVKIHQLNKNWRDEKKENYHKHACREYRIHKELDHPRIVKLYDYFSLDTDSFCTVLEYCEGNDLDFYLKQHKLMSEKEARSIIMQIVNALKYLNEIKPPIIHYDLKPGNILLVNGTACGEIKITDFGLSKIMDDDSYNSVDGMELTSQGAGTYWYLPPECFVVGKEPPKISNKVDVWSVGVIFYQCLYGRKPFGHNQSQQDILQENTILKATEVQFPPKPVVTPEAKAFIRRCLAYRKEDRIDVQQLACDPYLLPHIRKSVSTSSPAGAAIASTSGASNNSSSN

MG-63 = assay: Inhibition of cell proliferation in human MG-63 cells upto 10 umol/L incubated for 72 hrs by DAPI staining based analysis; format: functional; conditions: dose <= 10.0 µmol/L

## C[C@@H]1CCc2ncc(F)cc2[C@H]2CCCN2c2ccn3ncc(c3n2)C(=O)N1 [SELITRECTINIB]
[1]
  residual activity: 112%
[2]
  residual activity: 110%
NIH3T3
  Activity: Active
[3]
  residual activity: 106%
[4]
  residual activity: 97%
CAMA-1
  inhibition: inactive
[5]
  residual activity: 98.5%
J82
  inhibition: inactive
OE19
  inhibition: inactive
SHP77
  inhibition: inactive
[6]
  residual activity: 90%
[7]
  residual activity: 99%
MV4-11
  inhibition: inactive
[8]
  residual activity: 105%
[9]
  residual activity: 116%
[10]
  residual activity: 105%
[11]
  residual activity: 100%
[12]
  inhibition: 12%
[13]
  concentration at 708 h: 12 ng/mL
[14]
  residual activity: 94%
[15]
  residual activity: 114%
D283 Med
  inhibition: inactive
T-24
  inhibition: inactive
SJRH30
  inhibition: inactive
COR-L105
  inhibition: inactive
[16]
  residual activity: 124%
Homo sapiens
  residual activity: 109%
[17]
  residual activity: 99%
[18]
  residual activity: 108%
MG-63
  inhibition: inactive

Reference: ChEMBL document CHEMBL5678816, “A Next-Generation TRK Kinase Inhibitor Overcomes Acquired Resistance to Prior TRK Kinase Inhibition in Patients with TRK Fusion-Positive Solid Tumors” (Cancer Discov, 2017)
